Reference: US8026243B2, “[4,5′]Bipyrimidinyl-6,4′-diamine derivatives as protein kinase inhibitors” (Novartis AG, priority 2006, dated 2011)

Each molecule was assayed against T1, Ba/F3-TEL-FGFR3 cells (Homo sapiens, UniProt P22607) (assay: FGFR3 cellular assay: proliferation of transformed Ba/F3-TEL-FGFR3 cells (AlamarBlue)). Conditions: 48 hours incubation, class symbols.
T1 construct: fused on or other part: The N-terminal oligomerising part of TEL (ETV6) is fused before the intracellular kinase part of FGFR3; P41212 (Transcription factor ETV6)
T1 sequence (P22607 whole entry, change not shown, the tested form may be a part): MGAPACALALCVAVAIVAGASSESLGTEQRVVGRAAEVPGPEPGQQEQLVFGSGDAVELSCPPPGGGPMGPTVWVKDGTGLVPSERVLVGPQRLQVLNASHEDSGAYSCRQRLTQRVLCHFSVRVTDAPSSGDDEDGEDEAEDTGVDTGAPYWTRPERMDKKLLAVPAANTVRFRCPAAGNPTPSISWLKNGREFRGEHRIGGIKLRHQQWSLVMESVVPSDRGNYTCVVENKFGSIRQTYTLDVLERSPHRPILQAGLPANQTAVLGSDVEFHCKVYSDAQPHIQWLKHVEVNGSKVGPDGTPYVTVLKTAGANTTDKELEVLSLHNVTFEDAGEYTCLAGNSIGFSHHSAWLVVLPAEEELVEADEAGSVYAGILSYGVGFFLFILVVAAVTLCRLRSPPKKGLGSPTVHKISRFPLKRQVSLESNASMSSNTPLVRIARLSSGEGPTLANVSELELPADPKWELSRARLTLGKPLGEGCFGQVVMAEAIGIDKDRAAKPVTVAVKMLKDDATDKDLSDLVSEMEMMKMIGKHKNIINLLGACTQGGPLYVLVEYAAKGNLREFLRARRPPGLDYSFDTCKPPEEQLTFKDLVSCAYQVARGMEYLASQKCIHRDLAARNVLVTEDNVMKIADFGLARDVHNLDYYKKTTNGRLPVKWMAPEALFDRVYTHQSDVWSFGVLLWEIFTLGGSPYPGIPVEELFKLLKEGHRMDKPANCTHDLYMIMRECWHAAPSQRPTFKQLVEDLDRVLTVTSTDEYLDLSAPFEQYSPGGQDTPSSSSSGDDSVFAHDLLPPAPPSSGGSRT
Type: cell-based
Description: Compounds of the invention are tested for their ability to inhibit transformed Ba/F3-TEL-FGFR3 cells proliferation, which is dependent on FGFR3 cellular kinase activity. Ba/F3-TEL-FGFR3 are cultured up to 800,000 cells/mL in suspension, with RPMI 1640 supplemented with 10% fetal bovine serum as the culture medium. Cells are dispensed into 384-well format plate at 5000 cell/well in […], culture medium. Compounds of the invention are dissolved and diluted in dimethylsulfoxide (DMSO). Twelve points 1:3 serial dilutions are made into DMSO to create concentrations gradient ranging typically from 10 mM to 0.05 μM. Cells are added with 50 nL of diluted compounds and incubated for 48 hours in cell culture incubator. AlamarBlue® (TREK Diagnostic Systems), which can be used to monitor the reducing environment created by proliferating cells, are added to cells at final concentration of 10%. After additional four hours of incubation in a 37° C. cell culture incubator, fluorescence signals from reduced AlamarBlue® (Excitation at 530 nm, Emission at 580 nm) are quantified on Analyst GT (Molecular Devices Corp.). IC50 values are calculated by linear regression analysis of the percentage inhibition of each compound at 12 concentrations.

Structure (SMILES) | GI50 [µM]
COc1cc(Nc2ncncc2-c2cc(Nc3ccc(C(C)O)cn3)ncn2)c(F)c(OC)c1 (centres unmarked) [Compound 83, 1-{6-[4′-(2-Fluoro-3,5-dimethoxy-phenylamino)-[4,5′]bipyrimidinyl-6-ylamino]-pyridin-3-yl}-ethanol] | < 0.1
CCN1CCN(c2ccc(Nc3cc(-c4cncnc4Nc4c(Cl)c(OC)cc(OC)c4Cl)ncn3)cc2)CC1 [Compound 10, N4′-(2,6-Dichloro-3,5-dimethoxy-phenyl)-N6-[4-(4-ethyl-piperazin-1-yl)-phenyl]-[4,5′]bipyrimidinyl-6,4′-diamine] | < 0.1
COc1cc(OC)c(Cl)c(Nc2ncncc2-c2cc(NCCN3CCN(C)CC3)ncn2)c1Cl [Compound 14, N4′-(2,6-Dichloro-3,5-dimethoxy-phenyl)-N6-[2-(4-methyl-piperazin-1-yl)-ethyl]-[4,5′]bipyrimidinyl-6,4′-diamine] | 0.25 to 0.5
COc1cc(OC)c(F)c(Nc2ncncc2-c2cc(Nc3ccc(C(C)O)cn3)ncn2)c1F (centres unmarked) [Compound 80, 1-{6-[4′-(2,6-Difluoro-3,5-dimethoxy-phenylamino)-[4,5′]bipyrimidinyl-6-ylamino]-pyridin-3-yl}-ethanol] | < 0.1
COC(=O)c1cc(OC)c(Cl)c(Nc2ncncc2-c2cc(Nc3ccc(CN4CCOCC4)cn3)ncn2)c1Cl [Compound 27, 2,4-Dichloro-5-methoxy-3-[6-(5-morpholin-4-ylmethyl-pyridin-2-ylamino)-[4,5′]bipyrimidinyl-4′-ylamino]-benzoic acid methyl ester] | < 0.1
COc1cc(OC)c(Cl)c(Nc2ncncc2-c2cc(Nc3ccc(C(C)O)cn3)ncn2)c1F (centres unmarked) [Compound 79, 1-{6-[4′-(2-Chloro-6-fluoro-3,5-dimethoxy-phenylamino)-[4,5′]bipyrimidinyl-6-ylamino]-pyridin-3-yl}-ethanol] | < 0.1
CCN1CCN(c2ccc(Nc3cc(-c4cncnc4Nc4c(Cl)c(OC)cc(OC)c4Cl)ncn3)nc2)CC1 [Compound 40, N4′-(2,6-Dichloro-3,5-dimethoxy-phenyl)-N6-[5-(4-ethyl-piperazin-1-yl)-pyridin-2-yl]-[4,5′]bipyrimidinyl-6,4′-diamine] | < 0.1
COc1cc(OC)c(Cl)c(Nc2nccnc2-c2cc(Nc3ccc(CN4CCOCC4)cn3)ncn2)c1Cl [Compound 94, {6-[3-(2,6-Dichloro-3,5-dimethoxy-phenylamino)-pyrazin-2-yl]-pyrimidin-4-yl}-(5-morpholin-4-ylmethyl-pyridin-2-yl)-amine] | < 0.1
COc1cc(OC)c(Cl)c(Nc2ncncc2-c2cc(Nc3cccc(C(C)O)c3)ncn2)c1Cl (centres unmarked) [Compound 29, 1-{3-[4′-(2,6-Dichloro-3,5-dimethoxy-phenylamino)-[4,5′]bipyrimidinyl-6-ylamino]-phenyl}-ethanol] | < 0.1
COc1cc(OC)c(Cl)c(Nc2ncncc2-c2cc(NC(=O)NCCN3CCOCC3)ncn2)c1Cl [Compound 9, 1-[4′-(2,6-Dichloro-3,5-dimethoxy-phenylamino)-[4,5′]bipyrimidinyl-6-yl]-3-(2-morpholin-4-yl-ethyl)-urea] | < 0.1
COc1cc(OC)c(Cl)c(Nc2ncncc2-c2cc(Nc3ccc(CN4CCOCC4)cn3)ncn2)c1Cl [Compound 4, N4′-(2,6-Dichloro-3,5-dimethoxy-phenyl)-N6-(5-morpholin-4-ylmethyl-pyridin-2-yl)-[4,5′]bipyrimidinyl-6,4′-diamine] | < 0.1
COc1cc(OC)c(Cl)c(Nc2nccnc2-c2cc(Nc3cc(CN4CCOCC4)ccn3)ncn2)c1F [Compound 97, {6-[3-(2-chloro-3,5-dimethoxy-6-fluoro phenylamino)-pyrazin-2-yl]-pyrimidin-4-yl}-(4-morpholin-4-ylmethyl-pyridin-2-yl)-amine] | < 0.1
COc1cc(OC)c(F)c(Nc2ncncc2-c2cc(Nc3ccc(CN4CCOCC4)cn3)ncn2)c1F [Compound 63, N4′-(2,6-Difluoro-3,5-dimethoxy-phenyl)-N6-(5-morpholin-4-ylmethyl-pyridin-2-yl)-[4,5′]bipyrimidinyl-6,4′-diamine] | < 0.1
COc1cc(OC)c(Cl)c(Nc2ncncc2-c2cc(Nc3cncc(CN4CCOCC4)c3)ncn2)c1Cl [Compound 21, N4′-(2,6-Dichloro-3,5-dimethoxy-phenyl)-N6-(5-morpholin-4-ylmethyl-pyridin-3-yl)-[4,5′]bipyrimidinyl-6,4′-diamine] | 0.25 to 0.5
COc1cc(OC)c(Br)c(Nc2ncncc2-c2cc(Nc3ccc(CN4CCOCC4)cn3)ncn2)c1Cl [Compound 49, N4′-(2-Bromo-6-chloro-3,5-dimethoxy-phenyl)-N6-(5-morpholin-4-ylmethyl-pyridin-2-yl)-[4,5′]bipyrimidinyl-6,4′-diamine] | < 0.1
COc1ccc(F)c(Nc2nccnc2-c2cc(Nc3ccc(CN4CCOCC4)cn3)ncn2)c1F [Compound 104, {6-[3-(2,6-Difluoro-3-methoxy-phenylamino)-pyrazin-2-yl]-pyrimidin-4-yl}-N-(5-(morpholin-4-ylmethyl)-pyridin-2-yl)-amine] | < 0.1
COc1cc(OC)c(F)c(Nc2ncncc2-c2cc(Nc3cc(CN4CCOCC4)ccn3)ncn2)c1F [Compound 65, N4′-(2,6-Difluoro-3,5-dimethoxy-phenyl)-N6-(4-morpholin-4-ylmethyl-pyridin-2-yl)-[4,5′]bipyrimidinyl-6,4′-diamine] | < 0.1
COc1cc(OC)c(Cl)c(Nc2ncncc2-c2cc(Nc3ccc(CN4CCN(CCO)CC4)cn3)ncn2)c1F [Compound 73, 2-(4-{6-[4′-(2-Chloro-6-fluoro-3,5-dimethoxy-phenylamino)-[4,5′]bipyrimidinyl-6-ylamino]-pyridin-3-ylmethyl}-piperazin-1-yl)-ethanol] | < 0.1
COc1cc(OC)c(Cl)c(Nc2ncncc2-c2cc(Nc3cccc(C(C)O)c3)ncn2)c1F (centres unmarked) [Compound 77, 1-{3-[4′-(2-Chloro-6-fluoro-3,5-dimethoxy-phenylamino)-[4,5′]bipyrimidinyl-6-yl-amino]-phenyl}-ethanol] | < 0.1
COc1cc(OC)c(Cl)c(Nc2ncncc2-c2cc(Nc3ccc(CN4CCCC4)cn3)ncn2)c1Cl [Compound 2, N4′-(2,6-Dichloro-3,5-dimethoxy-phenyl)-N6-(5-pyrrolidin-1-ylmethyl-pyridin-2-yl)-[4,5′]bipyrimidinyl-6,4′-diamine] | < 0.1
COc1cc(OC)c(F)c(Nc2ncncc2-c2cc(Nc3cccc(C(C)O)c3)ncn2)c1F (centres unmarked) [Compound 78, 1-{3-[4′-(2,6-Difluoro-3,5-dimethoxy-phenylamino)-[4,5′]bipyrimidinyl-6-ylamino]-phenyl}-ethanol] | < 0.1
COc1cc(OC)c(Cl)c(Nc2ncncc2-c2cc(Nc3ccc(CN4CCOCC4)cn3)ncn2)c1F [Compound 44, N4′-(2-Chloro-6-fluoro-3,5-dimethoxy-phenyl)-N6-(5-morpholin-4-ylmethyl-pyridin-2-yl)-[4,5′]bipyrimidinyl-6,4′-diamine] | < 0.1
CCN1CCN(Cc2ccc(Nc3cc(-c4cncnc4Nc4c(Cl)c(OC)cc(C(=O)NC5CC5)c4Cl)ncn3)nc2)CC1 [Compound 58, 2,4-Dichloro-N-cyclopropyl-3-{6-[5-(4-ethyl-piperazin-1-ylmethyl)-pyridin-2-ylamino]-[4,5′]bipyrimidinyl-4′-ylamino}-5-methoxy-benzamide] | < 0.1
CCN1CCN(c2ccc(Nc3cc(-c4cncnc4Nc4cc(OC)cc(OC)c4F)ncn3)nc2)CC1 [Compound 72, N6-[5-(4-Ethyl-piperazin-1-yl)-pyridin-2-yl]-N4′-(2-fluoro-3,5-dimethoxy-phenyl)-[4,5′]bipyrimidinyl-6,4′-diamine] | < 0.1
COc1cc(OC)c(Cl)c(Nc2ncncc2-c2cc(Nc3ccc(CN4CCCCC4)cn3)ncn2)c1Cl [Compound 22, N4′-(2,6-Dichloro-3,5-dimethoxy-phenyl)-N6-(5-piperidin-1-ylmethyl-pyridin-2-yl)-[4,5′]bipyrimidinyl-6,4′-diamine] | < 0.1
CCN1CCN(Cc2ccc(Nc3cc(-c4cncnc4Nc4c(F)c(OC)cc(OC)c4F)ncn3)nc2)CC1 [Compound 64, N4′-(2,6-Difluoro-3,5-dimethoxy-phenyl)-N6-[5-(4-ethyl-piperazin-1-ylmethyl)-pyridin-2-yl]-[4,5′]bipyrimidinyl-6,4′-diamine] | < 0.1
CCNC(=O)c1cc(OC)c(Cl)c(Nc2ncncc2-c2cc(Nc3ccc(CCN4CCOCC4)cn3)ncn2)c1Cl [Compound 32, 2,4-Dichloro-N-ethyl-5-methoxy-3-{6-[5-(2-morpholin-4-yl-ethyl)-pyridin-2-ylamino]-[4,5′]bipyrimidinyl-4′-yl-amino}-benzamide] | 0.1 to 0.25
COc1cc(OC)c(Cl)c(Nc2ncncc2-c2cc(Nc3ccc(CCN4CCOCC4)cn3)ncn2)c1Cl [Compound 18, N4′-(2,6-Dichloro-3,5-dimethoxy-phenyl)-N6-[5-(2-morpholin-4-yl-ethyl)-pyridin-2-yl]-[4,5′]bipyrimidinyl-6,4′-diamine] | < 0.1
COc1cc(OC)c(Br)c(Nc2ncncc2-c2cc(Nc3cc(CN4CCOCC4)ccn3)ncn2)c1Cl [Compound 51, N4′-(2-Bromo-6-chloro-3,5-dimethoxy-phenyl)-N6-(4-morpholin-4-ylmethyl-pyridin-2-yl)-[4,5′]bipyrimidinyl-6,4′-diamine] | < 0.1
